# Data as given in ChEMBL document CHEMBL1201862, “PubChem BioAssay data set” (2004).
# The source made the active and inactive calls.
# Key:
# [1] = biological target: T1, DNA repair protein RAD52 homolog (Homo sapiens, UniProt P43351); assay type: functional, biochemical
# T1 sequence (P43351 whole entry): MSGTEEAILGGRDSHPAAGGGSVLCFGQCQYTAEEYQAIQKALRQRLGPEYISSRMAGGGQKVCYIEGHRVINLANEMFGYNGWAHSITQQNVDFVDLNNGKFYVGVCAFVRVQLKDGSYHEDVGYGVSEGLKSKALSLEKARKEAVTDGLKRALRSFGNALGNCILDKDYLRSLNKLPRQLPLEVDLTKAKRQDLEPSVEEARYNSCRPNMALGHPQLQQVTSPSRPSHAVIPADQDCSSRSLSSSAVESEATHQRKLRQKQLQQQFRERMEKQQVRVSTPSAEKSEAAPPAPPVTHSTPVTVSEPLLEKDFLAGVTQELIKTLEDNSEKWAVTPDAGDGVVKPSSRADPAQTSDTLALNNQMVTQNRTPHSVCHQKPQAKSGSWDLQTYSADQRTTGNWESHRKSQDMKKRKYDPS
# [2] = biological target: T2, DNA repair and recombination protein RAD54-like (Homo sapiens, UniProt Q92698); test: inhibitors of human RAD54 branch migration, confirmation, biochemical, fluorescence, cherry-picked samples, dose series (AID 651657); assay type: functional
# T2 sequence (Q92698 whole entry): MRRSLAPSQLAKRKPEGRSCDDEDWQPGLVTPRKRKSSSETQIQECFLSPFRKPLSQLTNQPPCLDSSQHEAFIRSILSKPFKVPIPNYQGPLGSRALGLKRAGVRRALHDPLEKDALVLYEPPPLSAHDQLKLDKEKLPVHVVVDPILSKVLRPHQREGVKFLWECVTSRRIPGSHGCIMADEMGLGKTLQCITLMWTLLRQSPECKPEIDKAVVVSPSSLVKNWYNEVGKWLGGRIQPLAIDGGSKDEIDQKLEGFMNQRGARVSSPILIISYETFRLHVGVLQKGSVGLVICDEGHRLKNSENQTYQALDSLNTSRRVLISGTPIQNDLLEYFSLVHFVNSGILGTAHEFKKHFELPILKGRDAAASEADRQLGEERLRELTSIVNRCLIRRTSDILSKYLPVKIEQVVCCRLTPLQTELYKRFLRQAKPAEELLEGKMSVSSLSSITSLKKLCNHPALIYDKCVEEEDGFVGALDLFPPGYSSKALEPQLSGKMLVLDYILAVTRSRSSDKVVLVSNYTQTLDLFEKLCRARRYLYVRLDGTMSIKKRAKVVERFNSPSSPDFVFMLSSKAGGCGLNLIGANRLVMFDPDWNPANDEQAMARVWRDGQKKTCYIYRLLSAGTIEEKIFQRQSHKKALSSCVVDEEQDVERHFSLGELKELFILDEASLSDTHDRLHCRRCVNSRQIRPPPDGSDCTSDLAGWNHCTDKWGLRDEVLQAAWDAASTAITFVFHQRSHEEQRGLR
# [3] = DNA binding of candidate compounds, dose response, artefact control for RAD54 inhibitor project, biochemical, fluorescence polarization, cherry-pick (AID 651673); assay type: functional
# [4] = miR-122 activators in hepatoma reporter cells, dose response, cell-based, Huh7 psiCHECK-miR122, Renilla luciferase, cherry-picked (AID 651956); assay type: functional;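 note: huh7 hepatoma cells stably carrying a psiCHECK-2 miR-122 sensor plasmid; renilla luciferase signal reporting endogenous miR-122 activity after 48 h compound exposure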
# [5] = HepG2 cell cytotoxicity, dose response, cytotoxicity control for Shn3 inhibitor project, CellTiter-Glo, cherry-picked (AID 624134); assay type: functional, cell-based
# [6] = control 3'UTR Renilla luciferase suppression, dose response, counter-screen for Shn3 inhibitor project, cell-based, Clone20-Shn3RL, cherry-picked (AID 624133); assay type: functional
# [7] = biological target: T3, Rac GTPase-activating protein 1 (Homo sapiens, UniProt Q9H0H5); test: MgcRacGAP GTPase-activating activity inhibitors, confirmation, biochemical, ADP Hunter fluorescence, primary and confirmatory (AID 624330); assay type: functional
# T3 sequence (Q9H0H5 whole entry): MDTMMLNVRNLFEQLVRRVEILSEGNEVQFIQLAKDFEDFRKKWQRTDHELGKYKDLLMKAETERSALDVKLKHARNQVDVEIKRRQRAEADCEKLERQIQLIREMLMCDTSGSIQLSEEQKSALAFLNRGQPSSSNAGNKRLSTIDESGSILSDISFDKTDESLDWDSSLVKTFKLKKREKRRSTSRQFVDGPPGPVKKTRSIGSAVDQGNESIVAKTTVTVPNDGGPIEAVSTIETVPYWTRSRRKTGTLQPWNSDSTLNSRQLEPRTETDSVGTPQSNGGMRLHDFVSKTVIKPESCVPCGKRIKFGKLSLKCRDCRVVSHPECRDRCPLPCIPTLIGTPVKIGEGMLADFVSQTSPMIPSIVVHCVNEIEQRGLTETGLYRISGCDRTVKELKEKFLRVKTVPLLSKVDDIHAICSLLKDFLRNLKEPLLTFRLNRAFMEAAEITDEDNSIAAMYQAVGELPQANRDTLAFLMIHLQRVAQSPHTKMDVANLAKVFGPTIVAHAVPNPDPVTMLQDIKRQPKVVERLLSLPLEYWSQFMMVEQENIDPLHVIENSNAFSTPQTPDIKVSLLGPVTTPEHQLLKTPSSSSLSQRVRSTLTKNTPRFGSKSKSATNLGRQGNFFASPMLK
# BJ [8] = test: cytotoxicity toward BJ-TERT fibroblasts, dose response, cell-based, RAS-independent, luminescence (AID 1933); assay type: functional; conditions: Homo sapiens
# [9] = HEK293T cell cytotoxicity, dose response, cytotoxicity control for HIV Vif inhibitor project, cherry-picks (AID 652208); assay type: functional, cell-based
# [10] = cytotoxicity toward DRD oncogenic fibroblasts, dose response, cell-based, non-viral oncogenic, luminescence (AID 1934); assay type: functional; conditions: Homo sapiens
# BJ [11] = test: cytotoxicity toward BJ-TERT-LT-ST fibroblasts, dose response, cell-based, RAS-independent, luminescence (AID 1935); assay type: functional; conditions: Homo sapiens;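 note: BJ fibroblasts immortalized with TERT plus LT and ST oncogenes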
# [12] = Shn3 3'UTR reporter inhibitors, dose response, cell-based, Clone20 osteoblasts, firefly luciferase, cherry-picked (AID 624132); assay type: functional;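 note: firefly luciferase luminescence from reporter carrying the Shn3 3'UTR in osteoblasts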
# BJ [13] = test: cytotoxicity toward Ras-transformed BJeLR fibroblasts, dose response, cell-based, alamar blue fluorescence, cherrypicked samples (AID 2631); assay type: functional; conditions: Homo sapiens;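 note: confirmatory dose-response assay in RAS-dependent BJ fibroblasts engineered with TERT, LT and ST, with cytotoxicity read by fluorescence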
# Protein S100-A4 = Protein S100-A4 (Homo sapiens, UniProt P26447); test: S100A4-myosin IIA binding inhibitor potency, dose response, biochemical, fluorescence polarization, cherry-picked hits (AID 687001); assay type: functional
# Sequence of Protein S100-A4 (P26447 whole entry): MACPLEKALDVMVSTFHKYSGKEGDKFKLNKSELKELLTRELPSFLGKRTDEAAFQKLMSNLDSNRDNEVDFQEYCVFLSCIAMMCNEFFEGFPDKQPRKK
# [14] = biological target: Palmitoyl-protein thioesterase ABHD10, mitochondrial (Mus musculus, UniProt Q6PE15); test: Late stage assay provider results from the probe development effort to identify inhibitors of PME-1: fluorescence-based dose response biochemical gel-based competitive Activity-Based Protein Profiling (ABPP) inhibition of ABHD10 Set 1.; assay type: functional
# Sequence of Palmitoyl-protein thioesterase ABHD10, mitochondrial (Q6PE15 whole entry): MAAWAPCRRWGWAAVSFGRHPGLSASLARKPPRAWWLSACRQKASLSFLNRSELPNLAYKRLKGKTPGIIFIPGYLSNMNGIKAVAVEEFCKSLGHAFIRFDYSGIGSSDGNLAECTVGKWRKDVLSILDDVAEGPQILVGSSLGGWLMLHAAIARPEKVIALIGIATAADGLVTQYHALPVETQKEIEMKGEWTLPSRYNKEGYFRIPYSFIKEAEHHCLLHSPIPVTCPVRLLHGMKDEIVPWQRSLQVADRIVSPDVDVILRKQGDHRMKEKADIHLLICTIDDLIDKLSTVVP
# Caspase-3 = biological target: T4, Caspase-3 (Homo sapiens, UniProt P42574); test: Dose-response confirmation of uHTS inhibitor hits of Sentrin-Specific Protease 8 in a Caspase-3 Fluorescence assay.; assay type: functional
# T4 sequence (P42574 whole entry): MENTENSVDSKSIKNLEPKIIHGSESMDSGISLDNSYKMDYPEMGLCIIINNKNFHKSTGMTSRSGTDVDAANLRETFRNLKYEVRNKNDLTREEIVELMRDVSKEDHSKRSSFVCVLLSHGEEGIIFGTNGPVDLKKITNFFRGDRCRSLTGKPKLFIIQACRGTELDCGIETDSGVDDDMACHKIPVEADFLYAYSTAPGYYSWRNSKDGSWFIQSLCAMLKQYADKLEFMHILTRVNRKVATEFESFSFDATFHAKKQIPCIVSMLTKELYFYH
# [15] = biological target: T5, Sentrin-specific protease 8 (Homo sapiens, UniProt Q96LD8); assay type: functional
# T5 sequence (Q96LD8 whole entry): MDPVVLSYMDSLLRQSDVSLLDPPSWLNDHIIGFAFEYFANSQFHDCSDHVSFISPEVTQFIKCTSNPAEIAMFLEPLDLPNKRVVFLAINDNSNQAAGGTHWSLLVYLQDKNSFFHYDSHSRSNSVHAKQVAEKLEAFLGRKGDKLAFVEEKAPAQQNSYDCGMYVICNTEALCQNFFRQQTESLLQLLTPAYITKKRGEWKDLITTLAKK
# [16] = biological target: T5, Sentrin-specific protease 8; assay type: functional; remark: listed apart in the source
# [17] = cytotoxicity in L-6 rat myocytes, dose response, cytotoxicity control, cell-based, plate reader, cherry-pick (AID 651896); assay type: functional
# [18] = T. b. rhodesiense proliferation inhibition, dose response, STIB900 strain, plate reader, cherry pick (AID 651893); assay type: functional, cell-based; conditions: Trypanosoma brucei
# [19] = Inhibition of Plasmodium falciparum NF54 Measured in Cell-Based System Using Plate Reader - 2138-11_Inhibitor_Dose_CherryPick_Activity.; assay type: functional
# [20] = Inhibition of T. cruzi Tulahuen strain amastigotes in L-6 muscle cells Measured in Cell-Based and Microorganism Combination System Using Plate Reader - 2138-03_Inhibitor_Dose_CherryPick_Activity.; assay type: functional; conditions: Rattus norvegicus, L6
# [21] = L. donovani amastigote growth inhibition, dose response, axenic amastigotes, plate reader, cherry pick (AID 651891); assay type: functional, cell-based; conditions: Leishmania donovani
# [22] = HeLa cell cytotoxicity, dose response, cytotoxicity control for MgcRacGAP inhibitor project (AID 624300); assay type: functional
# Cytochrome P450 2C9 = Cytochrome P450 2C9 (Homo sapiens, UniProt P11712)
# Sequence of Cytochrome P450 2C9 (P11712 whole entry): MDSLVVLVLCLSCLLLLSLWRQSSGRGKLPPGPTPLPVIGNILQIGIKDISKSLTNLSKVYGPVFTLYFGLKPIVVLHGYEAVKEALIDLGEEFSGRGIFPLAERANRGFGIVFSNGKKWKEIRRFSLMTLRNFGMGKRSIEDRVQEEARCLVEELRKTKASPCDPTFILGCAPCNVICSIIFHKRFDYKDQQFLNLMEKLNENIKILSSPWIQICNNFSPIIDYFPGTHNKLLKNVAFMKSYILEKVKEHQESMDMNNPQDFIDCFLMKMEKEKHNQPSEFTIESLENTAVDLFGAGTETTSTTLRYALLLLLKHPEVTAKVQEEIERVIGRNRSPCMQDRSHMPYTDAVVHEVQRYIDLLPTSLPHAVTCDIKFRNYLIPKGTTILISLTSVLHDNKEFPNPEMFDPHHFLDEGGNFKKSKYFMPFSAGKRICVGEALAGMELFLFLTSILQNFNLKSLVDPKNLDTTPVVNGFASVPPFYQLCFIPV
# Beta-lactamase [23] = biological target: T6, Beta-lactamase (Pseudomonas aeruginosa, UniProt Q79MP6); test: IMP-1 metallo-beta-lactamase inhibitors, dose response, selectivity assay for VIM-2 inhibitor project, biochemical, epi-absorbance (AID 1920)
# T6 sequence (Q79MP6 whole entry): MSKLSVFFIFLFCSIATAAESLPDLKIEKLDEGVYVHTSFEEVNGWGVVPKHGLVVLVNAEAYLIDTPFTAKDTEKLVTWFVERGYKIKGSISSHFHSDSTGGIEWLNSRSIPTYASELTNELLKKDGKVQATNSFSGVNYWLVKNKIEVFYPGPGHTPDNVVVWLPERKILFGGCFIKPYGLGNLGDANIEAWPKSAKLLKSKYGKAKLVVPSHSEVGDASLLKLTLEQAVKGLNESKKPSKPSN
# Beta-lactamase [24] = biological target: T6, Beta-lactamase; test: […] counterscreen for selective VIM-2 inhibitors: dose response biochemical high throughput screening assay to identify inhibitors of IMP-1 metallo-beta-lactamase.
# Beta-lactamase [25] = biological target: Beta-lactamase (Salmonella choleraesuis (strain SC-B67), UniProt Q5J463); test: Epi-absorbance-based counterscreen for selective VIM-2 inhibitors: dose response biochemical high throughput screening assay to identify inhibitors of TEM-1 serine-beta-lactamase.
# Sequence of Beta-lactamase (Salmonella choleraesuis (strain SC-B67), UniProt Q5J463) (Q5J463 whole entry): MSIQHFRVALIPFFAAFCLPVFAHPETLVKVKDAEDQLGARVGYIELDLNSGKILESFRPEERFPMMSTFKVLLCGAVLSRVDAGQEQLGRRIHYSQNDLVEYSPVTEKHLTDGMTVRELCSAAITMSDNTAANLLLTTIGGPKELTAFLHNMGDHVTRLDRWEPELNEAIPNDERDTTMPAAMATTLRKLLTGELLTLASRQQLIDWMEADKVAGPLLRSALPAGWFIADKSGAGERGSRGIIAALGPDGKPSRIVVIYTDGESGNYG
# [26] = biological target: Botulinum neurotoxin type F (Clostridium botulinum, UniProt P30996); test: High-throughput multiplex microsphere dose response for inhibitors of toxin protease, specifically Botulinum neurotoxin light chain F protease, compounds from Powder Set 01.; assay type: functional, Clostridium botulinum Bf; conditions: read-out: EC50_MICROM
# Sequence of Botulinum neurotoxin type F (P30996 1-436 limits assumed): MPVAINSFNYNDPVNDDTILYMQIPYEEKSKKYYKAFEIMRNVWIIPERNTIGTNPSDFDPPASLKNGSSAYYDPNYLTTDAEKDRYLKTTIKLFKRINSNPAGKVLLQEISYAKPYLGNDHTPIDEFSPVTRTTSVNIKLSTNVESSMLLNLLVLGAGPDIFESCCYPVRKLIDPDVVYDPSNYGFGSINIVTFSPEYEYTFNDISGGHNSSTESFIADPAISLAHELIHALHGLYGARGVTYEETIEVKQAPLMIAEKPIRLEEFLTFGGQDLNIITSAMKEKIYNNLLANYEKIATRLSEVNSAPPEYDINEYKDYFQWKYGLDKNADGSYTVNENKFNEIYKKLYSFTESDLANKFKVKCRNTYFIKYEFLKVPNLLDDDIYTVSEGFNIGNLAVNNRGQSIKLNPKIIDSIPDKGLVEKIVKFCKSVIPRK
# Lethal factor = Lethal factor (Bacillus anthracis, UniProt P15917); test: High-throughput multiplex microsphere dose response for inhibitors of toxin protease, specifically Lethal Factor protease, compounds from Powder Set 01.; assay type: functional, Bacillus anthracis str. A2012; conditions: read-out: EC50_MICROM
# Sequence of Lethal factor (P15917 whole entry): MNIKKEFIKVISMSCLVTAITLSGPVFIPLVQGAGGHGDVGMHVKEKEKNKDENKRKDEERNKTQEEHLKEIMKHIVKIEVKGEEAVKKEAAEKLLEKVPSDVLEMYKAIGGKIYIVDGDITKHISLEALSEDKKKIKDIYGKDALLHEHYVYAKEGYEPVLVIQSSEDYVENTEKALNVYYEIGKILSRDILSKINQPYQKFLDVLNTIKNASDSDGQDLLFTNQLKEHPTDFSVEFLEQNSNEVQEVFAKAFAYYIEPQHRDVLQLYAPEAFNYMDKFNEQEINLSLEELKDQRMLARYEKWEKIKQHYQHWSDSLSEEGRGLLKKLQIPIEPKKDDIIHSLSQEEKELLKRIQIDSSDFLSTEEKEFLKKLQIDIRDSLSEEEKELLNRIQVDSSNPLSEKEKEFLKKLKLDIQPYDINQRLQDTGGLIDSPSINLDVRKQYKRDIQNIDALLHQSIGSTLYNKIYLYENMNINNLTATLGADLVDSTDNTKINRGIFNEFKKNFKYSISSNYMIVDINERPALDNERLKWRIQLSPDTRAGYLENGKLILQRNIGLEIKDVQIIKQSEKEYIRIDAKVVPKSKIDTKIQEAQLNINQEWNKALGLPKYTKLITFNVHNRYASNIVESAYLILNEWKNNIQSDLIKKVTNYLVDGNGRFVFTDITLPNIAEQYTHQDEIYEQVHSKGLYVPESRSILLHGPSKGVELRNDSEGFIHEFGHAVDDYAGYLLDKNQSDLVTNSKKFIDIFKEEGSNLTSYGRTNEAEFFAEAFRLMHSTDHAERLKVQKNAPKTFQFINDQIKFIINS
# [27] = biological target: T7, Botulinum neurotoxin type A (Clostridium botulinum (strain Hall / ATCC 3502 / NCTC 13319 / Type A), UniProt P0DPI1); test: High-throughput multiplex microsphere dose response for inhibitors of toxin protease, specifically Botulinum neurotoxin light chain A protease, compounds from Powder Set 01.; assay type: functional, Clostridium botulinum A str. ATCC 3502; conditions: read-out: EC50_MICROM
# T7 sequence (P0DPI1 2-448 limits assumed): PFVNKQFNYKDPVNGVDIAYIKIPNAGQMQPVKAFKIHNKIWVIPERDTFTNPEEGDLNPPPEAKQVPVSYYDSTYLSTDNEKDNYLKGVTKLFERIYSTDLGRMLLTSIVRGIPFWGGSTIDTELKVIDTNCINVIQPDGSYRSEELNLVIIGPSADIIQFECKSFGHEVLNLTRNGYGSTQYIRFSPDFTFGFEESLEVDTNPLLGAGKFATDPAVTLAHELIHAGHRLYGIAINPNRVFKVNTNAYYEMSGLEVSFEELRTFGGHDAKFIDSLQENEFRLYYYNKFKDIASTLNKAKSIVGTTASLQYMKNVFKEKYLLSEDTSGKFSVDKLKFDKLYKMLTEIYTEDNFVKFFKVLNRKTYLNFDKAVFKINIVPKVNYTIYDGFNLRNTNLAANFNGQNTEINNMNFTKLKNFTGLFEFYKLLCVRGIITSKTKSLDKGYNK
# [28] = biological target: T7, Botulinum neurotoxin type A; test: Confirmatory FRET assay using full length substrates for Botulinum neurotoxin light chain A protease, with Powder Set01.; assay type: functional
# [29] = biological target: T8, Sentrin-specific protease 1 (Homo sapiens, UniProt Q9P0U3); test: Dose response confirmation of small molecule inhibitors of the catalytic domain of the SUMO protease, SENP1 in a FRET assay.; assay type: functional; conditions: read-out: IC50_Mean
# T8 sequence (Q9P0U3 whole entry, the tested form may be a part): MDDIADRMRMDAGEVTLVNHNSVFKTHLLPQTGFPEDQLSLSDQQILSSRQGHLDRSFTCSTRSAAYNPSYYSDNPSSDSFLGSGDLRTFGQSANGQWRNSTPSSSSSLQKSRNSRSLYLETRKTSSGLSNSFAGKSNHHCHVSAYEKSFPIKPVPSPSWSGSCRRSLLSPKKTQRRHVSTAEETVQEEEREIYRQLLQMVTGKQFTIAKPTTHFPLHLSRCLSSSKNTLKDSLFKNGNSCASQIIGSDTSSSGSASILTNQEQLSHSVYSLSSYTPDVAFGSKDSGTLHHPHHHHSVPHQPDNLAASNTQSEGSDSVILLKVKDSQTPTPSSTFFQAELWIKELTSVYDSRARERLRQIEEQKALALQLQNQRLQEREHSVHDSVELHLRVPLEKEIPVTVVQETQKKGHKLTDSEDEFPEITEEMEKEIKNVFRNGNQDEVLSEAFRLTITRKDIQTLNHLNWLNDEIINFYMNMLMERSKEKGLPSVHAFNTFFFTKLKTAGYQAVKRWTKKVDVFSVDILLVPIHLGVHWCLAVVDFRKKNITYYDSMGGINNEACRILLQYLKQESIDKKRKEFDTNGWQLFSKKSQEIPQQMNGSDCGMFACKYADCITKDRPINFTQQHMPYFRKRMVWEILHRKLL
# [30] = biological target: T8, Sentrin-specific protease 1; test: potency of human SENP1 inhibitors, dose response, biochemical, kinetic FRET (AID 651697); assay type: functional; conditions: read-out: IC50_Mean
# [31] = NIH/3T3 fibroblast cytotoxicity, dose response, cytotoxicity control for T. cruzi growth inhibitor project, cell-based, cherry-pick samples, set 2 (AID 651817); assay type: functional; conditions: NIH3T3
smiles,measurement,setting,value
COc1ccc(-c2nc(NCCCN(C)C)c3ccccc3n2)cc1,AC50,[1],2.39 µM (active)
same,AC50,[2],6 µM (active)
same,AC50,[3],46.8 µM (active)
C[C@@H]1CN([C@H](C)CO)S(=O)(=O)c2ccc(/C=C/c3ccccc3)cc2O[C@@H]1CN(C)C(=O)c1cccnc1,AC50,[4],2.93 µM (active)
CCOc1cc(/C=C2\CN(CC)C/C(=C\c3ccc(O)c(OCC)c3)C2=O)ccc1O,AC50,[5],9.14 µM (active)
same,AC50,[6],12.5 µM (active)
same,IC50,[7],46.6 µM (active)
same,EC50,BJ [8],4.09 µM (active)
same,AC50,[9],14.7 µM (active)
same,EC50,[10],3.65 µM (active)
same,EC50,BJ [11],3.15 µM (inconclusive)
same,AC50,[12],2.12 µM (active)
same,EC50,BJ [13],0.583 µM (active)
O=C1C(N2CCOCC2)=Cc2cccc3cccc1c23,AC50,Protein S100-A4,1.09 µM (active)
CCCOC(=O)N1C(=O)[C@@](CC)(c2ccc(C)cc2)N1C(=O)OCCC,IC50,[14],0.012 µM (active)
CCC(CO)Oc1cc(NCc2cccc(C)c2)c2ncn(C(C)C)c2c1 (stereo unspecified),IC50,Caspase-3,46.6 µM (active)
same,IC50,[15],12.6 µM (active)
same,IC50,[16],14 µM (active)
C[C@@H]1CN([C@H](C)CO)C(=O)c2cccc(NC(=O)c3ccncc3)c2O[C@@H]1CN(C)Cc1ccc(Cl)c(Cl)c1,IC50,[17],> 100 µM (inactive)
same,IC50,[18],11.1 µM (inactive)
same,IC50,[19],5.59 µM (inactive)
same,IC50,[20],5.59 µM (inactive)
same,IC50,[21],> 100 µM (inactive)
CN(C)CCCN1c2ccc3ccccc3c2Sc2cccc(Cl)c21,IC50,[7],48.9 µM (active)
same,CC50,[22],42.8 µM (active)
same,AC50,Cytochrome P450 2C9,7.94 µM (inconclusive)
CCCCn1c(S)nnc1-c1nn(C)cc1Cl,IC50,Beta-lactamase [23],> 59.6 µM (inactive)
same,IC50,Beta-lactamase [24],> 59.6 µM (inactive)
same,IC50,Beta-lactamase [25],> 59.6 µM (inactive)
Cc1ccc(-c2cn3nc(-c4ccccc4)c(-c4ccccc4)nc3n2)cc1,EC50,[26],9.1 µM (active)
same,EC50,Lethal factor,2 µM (active)
same,EC50,[27],1.5 µM (active)
same,EC50,[28],2.5 µM (active)
COc1cc([C@H]2c3c(cc(OC)c(O)c3OC)C[C@@H](CO)[C@@H]2CO[C@@H]2O[C@H](CO)[C@@H](O)[C@H](O)[C@H]2O)cc(OC)c1O,IC50,[29],14.2 µM (active)
same,IC50,[30],24.4 µM (inactive)
Cc1ccc(S(=O)(=O)N(C)C[C@@H]2Oc3c(NC(=O)c4nc5ccccc5s4)cccc3C(=O)N([C@H](C)CO)C[C@@H]2C)cc1,AC50,[31],24.8 µM (active)
